The structures appear in SMILES notation. Several values for one entry are separate records, joined by “and”; a condition that tells them apart may be missing. Equal values may be shown once.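 Method: 48-hour compound exposure of cells in 96-well plates, five concentrations, linear interpolation of endpoints. Abbreviation: GI50, concentration required for 50% inhibition of growth. Definition used: TGI = concentration required for complete inhibition of growth.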

Among the test systems are ACHN renal; HCT-15 colon; HOP-92 NSCLC; HT29 colon; M14 melanoma; SF-268 CNS; SK-MEL-2 melanoma; SNB-75 CNS; UACC-257 melanoma; SK-MEL-5 melanoma.
What all share (assay): NCI-60 cell line screen, 48 h

`NNC(=O)N/N=C1\C(=O)N(c2nccs2)C(=O)C(=O)C1c1nc2ccccc2s1` (configuration not stated): the TGI with ACHN renal, in the assay on HCT-15 colon, in the assay with HOP-92 NSCLC, in the assay with HT29 colon, in the assay on M14 melanoma and in the assay on SF-268 CNS was greater than 100 µM each time. The TGI in the assay on SK-MEL-2 melanoma, with SNB-75 CNS and with UACC-257 melanoma was greater than 100 µM throughout.
For the compound `CN(O)C(=S)c1ccccc1`, the TGI in the assay on ACHN renal was 37.7 µM; in the assay on HCT-15 colon it was 37.6 µM; in the assay on HOP-92 NSCLC, greater than 100 µM; in the assay on M14 melanoma it was greater than 38.7 µM; in the assay on SF-268 CNS, greater than 100 µM; in the assay with SK-MEL-2 melanoma, greater than 33.1 µM. Also, the TGI was 16.3 µM with SK-MEL-5 melanoma, greater than 100 µM in the assay on SNB-75 CNS and 57.8 µM in the assay on UACC-257 melanoma.
On to `CC(O[Si](c1ccccc1)(c1ccccc1)C(C)(C)C)[C@H](NC(=O)OC(C)(C)C)C(=O)O` (some centres not stated), for which the TGI in the assay on ACHN renal was greater than 100 µM; with HCT-15 colon it was 79.7 µM; in the assay with HOP-92 NSCLC, 78.1 µM; with HT29 colon, greater than 100 µM; in the assay with M14 melanoma, greater than 100 µM; with SF-268 CNS, greater than 100 µM. The TGI in the assay with SK-MEL-5 melanoma is 50.8 µM; in the assay with SNB-75 CNS, greater than 100 µM; in the assay on UACC-257 melanoma, greater than 100 µM.
For `Cc1ccc(NC(=O)CC/C(CC(=O)C(C)(C)C)=N\Nc2ccc([N+](=O)[O-])cc2[N+](=O)[O-])cc1C`, the TGI in the assay on ACHN renal is greater than 100 µM; in the assay on HCT-15 colon, greater than 100 µM; with HOP-92 NSCLC it was greater than 100 µM; in the assay on HT29 colon, greater than 100 µM; in the assay on M14 melanoma it was 20.4 µM; with SF-268 CNS, greater than 100 µM. Moreover, the TGI with SK-MEL-2 melanoma and in the assay on UACC-257 melanoma was greater than 100 µM each time.
Take `O=C(O)CCSC(=S)Nc1cccc(F)c1`: the TGI with ACHN renal was 83.3 µM; with HCT-15 colon it was greater than 100 µM; with HOP-92 NSCLC, 98.9 µM; in the assay with HT29 colon it was greater than 100 µM; in the assay on M14 melanoma it was greater than 100 µM; with SF-268 CNS, greater than 100 µM. The TGI in the assay with SK-MEL-5 melanoma is 43.5 µM; in the assay on SNB-75 CNS, greater than 100 µM; in the assay on UACC-257 melanoma it was 53.2 µM.
Consider `O=C(O)CCSC(=O)Nc1ccccc1Cl`, for which the TGI in the assay on ACHN renal, in the assay with HCT-15 colon, with HOP-92 NSCLC, in the assay on HT29 colon, in the assay with M14 melanoma and in the assay with SF-268 CNS was greater than 100 µM throughout. Moreover, the TGI in the assay on SK-MEL-5 melanoma, in the assay on SNB-75 CNS and with UACC-257 melanoma was greater than 100 µM in each case.
For the compound `NC(=Nc1nc(-c2ccccn2)cc2ccccc12)c1ccccn1`, the GI50 in the assay with ACHN renal is 0.0115 µM; in the assay with HCT-15 colon, 0.000503 µM; with HOP-92 NSCLC it was 0.0765 µM; in the assay on HT29 colon, 0.0708 µM; in the assay with M14 melanoma it was 0.00816 µM; in the assay with SF-268 CNS it was 0.111 µM. Also, the GI50 in the assay with SK-MEL-2 melanoma was 0.477 µM and 0.272 µM; in the assay on SK-MEL-5 melanoma, 0.0462 µM. Moreover, the TGI with HCT-15 colon was greater than 19.7 µM; with HOP-92 NSCLC it was 5.92 µM; with HT29 colon, greater than 100 µM; with M14 melanoma, 0.534 µM and 2.86 µM; in the assay with SF-268 CNS, 12.1 µM; with SK-MEL-2 melanoma, greater than 89.3 µM. Besides, the TGI in the assay with SK-MEL-5 melanoma is greater than 78.1 µM; with UACC-257 melanoma, 0.794 µM and 1.15 µM.
Turning to `N#Cc1c(N)nc(N2CCSCC2)c(C#N)c1-c1ccc(O)cc1`, the GI50 in the assay with ACHN renal is 18.9 µM; in the assay on HCT-15 colon, 17.6 µM; in the assay on HOP-92 NSCLC it was 10.1 µM; with HT29 colon, 16.7 µM; in the assay on SF-268 CNS it was 18.2 µM; in the assay on SK-MEL-2 melanoma, 51 µM. For the same compound, the values for the GI50 in the assay on SK-MEL-5 melanoma, in the assay on SNB-75 CNS and with UACC-257 melanoma were 12.7 µM, 10.9 µM and 21.9 µM, respectively. In addition, the TGI in the assay with ACHN renal was 59 µM; in the assay with HCT-15 colon it was 54.1 µM; with HOP-92 NSCLC, 47.5 µM; in the assay on HT29 colon, 37.6 µM; with SF-268 CNS it was 56.5 µM; with SK-MEL-2 melanoma, greater than 100 µM. Further, the TGI turned out to be 28 µM with SK-MEL-5 melanoma, 30.4 µM in the assay with SNB-75 CNS and 52.6 µM in the assay on UACC-257 melanoma.
Turning to `COC(=O)c1ccc2c(c1)c1c(C)c3ccncc3c(C)c1n2C`, the GI50 with ACHN renal was 0.0519 µM; in the assay with HCT-15 colon, 0.215 µM; in the assay on HOP-92 NSCLC, 0.378 µM; with HT29 colon, 0.133 µM; in the assay with M14 melanoma it was 0.453 µM; with SF-268 CNS it was 0.114 µM. Moreover, the GI50 was 0.75 µM with SK-MEL-2 melanoma, 0.232 µM in the assay on SK-MEL-5 melanoma and 0.104 µM with SNB-75 CNS. Besides, the TGI with ACHN renal is greater than 100 µM; with HCT-15 colon, 21.2 µM; in the assay with HOP-92 NSCLC, greater than 100 µM; in the assay on HT29 colon, greater than 100 µM; in the assay with M14 melanoma, 36.3 µM; with SF-268 CNS, greater than 100 µM. The TGI in the assay on SK-MEL-2 melanoma amounted to 31.6 µM; with SK-MEL-5 melanoma it was 0.912 µM; in the assay on SNB-75 CNS, 15.9 µM.
Consider `CC1=C2[C@H](c3ccccc3)C3C=CC2(c2ccccc23)N(C(=O)C(c2ccccc2)c2ccccc2)C1=O` (some centres not stated), for which the TGI in the assay on ACHN renal, with HCT-15 colon, in the assay on HOP-92 NSCLC, with HT29 colon, in the assay with M14 melanoma and in the assay with SF-268 CNS was greater than 100 µM throughout. The TGI with SK-MEL-5 melanoma, with SNB-75 CNS and in the assay on UACC-257 melanoma was greater than 100 µM in each case.
With `CC1=NN(C(=O)c2ccc(Cl)cc2)C(=O)/C1=C/c1ccco1`, the TGI with ACHN renal, in the assay on HCT-15 colon, with HOP-92 NSCLC, in the assay with HT29 colon, with M14 melanoma and in the assay with SF-268 CNS was greater than 100 µM throughout. The TGI in the assay with SK-MEL-2 melanoma, in the assay with SK-MEL-5 melanoma and with UACC-257 melanoma was greater than 100 µM throughout.
Regarding `CCCCCCCCCOC(=S)NCCCCC`, the TGI is 69.9 µM in the assay with ACHN renal; 53.9 µM in the assay on HCT-15 colon; 53.9 µM with HOP-92 NSCLC; 63.4 µM with HT29 colon; 87.9 µM with M14 melanoma; greater than 100 µM in the assay with SF-268 CNS. Besides, the results for the TGI with SK-MEL-5 melanoma, in the assay on SNB-75 CNS and with UACC-257 melanoma were 40.7 µM, greater than 100 µM and 62.1 µM, respectively.

The values are drawn from PubChem BioAssay (NCI).
